Test results: the supplement of paper PMC13380429

Assays:
Conditions in all cases: 72 h
[1] = tested on: Vero E6; test: drug sensitivity score (DSS) for viability; higher = more toxic; extreme values may be limits of the assay
[2] = tested on: Caco-2; test: as above
[3] = tested on: HepG2; test: as above
[4] = tested on: Calu-3; test: as above
[5] = tested on: U2OS; test: as above
[6] = tested on: Vero E6; test: relative viability EC50 (midpoint between 100% and the lowest measured viability); higher = less toxic
[7] = tested on: Caco-2; test: as above
[8] = tested on: HepG2; test: as above
[9] = tested on: Calu-3; test: as above
[10] = tested on: U2OS; test: as above
[11] = tested on: Vero E6; test: cell viability relative to DMSO; higher = less toxic
[12] = tested on: Caco-2; test: as above
[13] = tested on: HepG2; test: as above
[14] = tested on: Calu-3; test: as above
[15] = tested on: U2OS; test: as above

SMILES | drug sensitivity score [1] | drug sensitivity score [2] | drug sensitivity score [3] | drug sensitivity score [4] | drug sensitivity score [5] | relative viability EC50 [6] | relative viability EC50 [7] | relative viability EC50 [8] | relative viability EC50 [9] | relative viability EC50 [10] | cell viability ([11]; 1 nM) | cell viability ([11]; 10 nM) | cell viability ([11]; 100 nM) | cell viability ([11]; 1000 nM) | cell viability ([11]; 10000 nM) | cell viability ([12]; 1 nM) | cell viability ([12]; 10 nM) | cell viability ([12]; 100 nM) | cell viability ([12]; 1000 nM) | cell viability ([12]; 10000 nM) | cell viability ([13]; 1 nM) | cell viability ([13]; 10 nM) | cell viability ([13]; 100 nM) | cell viability ([13]; 1000 nM) | cell viability ([13]; 10000 nM) | cell viability ([14]; 1 nM) | cell viability ([14]; 10 nM) | cell viability ([14]; 100 nM) | cell viability ([14]; 1000 nM) | cell viability ([14]; 10000 nM) | cell viability ([15]; 1 nM) | cell viability ([15]; 10 nM) | cell viability ([15]; 100 nM) | cell viability ([15]; 1000 nM) | cell viability ([15]; 10000 nM)
Cc1ccc(-c2csc3ncnc(SCCC(=O)O)c23)cc1 [TTP-22] | 0 | 0 | 0 | 0 | 0 | > 10 µM | > 10 µM | > 10 µM | > 10 µM | > 10 µM | 97.1% | 94% | 102% | 101% | 102% | 103% | 96.5% | 97.3% | 95% | 97.4% | 103% | 92.3% | 95.6% | 100% | 108% | 101% | 87.5% | 93.4% | 99.4% | 96.3% | 97.3% | 102% | 99% | 99% | 104%
CCCCNc1ncc(-c2ccc(CN3CCOCC3)cn2)c(N[C@H]2CC[C@H](O)CC2)n1 [UNC2250] | 0 | 0 | 0 | 0 | 0 | > 10 µM | > 10 µM | > 10 µM | > 10 µM | > 10 µM | 101% | 99.6% | 94.5% | 91.9% | 99.1% | 97.1% | 103% | 105% | 108% | 103% | 108% | 102% | 109% | 97.7% | 100% | 102% | 102% | 94.7% | 108% | 98.9% | 97.9% | 98.8% | 99.9% | 100% | 94.8%
O=[N+]([O-])c1ccc2nc(COCc3nc4ccc([N+](=O)[O-])cc4[nH]3)[nH]c2c1 [VU591] | 0 | 0 | 0 | 0 | 0 | > 10 µM | > 10 µM | > 10 µM | > 10 µM | > 10 µM | 93.4% | 99.1% | 92.2% | 94.6% | 114% | 95.8% | 92.2% | 103% | 84.9% | 92.8% | 94.1% | 95.6% | 96.3% | 96.2% | 102% | 94.6% | 95.3% | 101% | 100% | 88.7% | 93.2% | 93.7% | 99.4% | 99% | 97.3%
CC(=O)c1ccc2c(c1)N(CCCN1CCN(CCO)CC1)c1ccccc1S2 [acetophenazine] | 0.5 | 0 | 0 | 0 | 0 | > 10 µM | > 10 µM | > 10 µM | > 10 µM | > 10 µM | 104% | 98.2% | 106% | 99% | 82.6% | 88.8% | 103% | 95.4% | 97.2% | 97.7% | 107% | 98.9% | 91.1% | 90.9% | 90.4% | 107% | 110% | 95.3% | 108% | 88.7% | 93.6% | 100% | 96.1% | 98.2% | 91.3%
O=C(c1ccc2nccnc2c1)N1CCCCC1 [ampalex] | 0 | 0 | 0 | 0 | 0 | > 10 µM | > 10 µM | > 10 µM | > 10 µM | > 10 µM | 96.3% | 96.8% | 98.8% | 93.1% | 94% | 97.6% | 100% | 94.5% | 103% | 101% | 103% | 99.6% | 108% | 102% | 102% | 97.4% | 107% | 95.5% | 96.6% | 100% | 98.3% | 102% | 94.8% | 99.7% | 102%
Nc1cc(Cl)c(N=C2NCCN2)c(Cl)c1 [apraclonidine] | 0 | 0 | 0 | 0 | 0 | > 10 µM | > 10 µM | > 10 µM | > 10 µM | > 10 µM | 108% | 89.1% | 101% | 95.2% | 98.6% | 104% | 92.7% | 110% | 111% | 96.6% | 96.5% | 96.7% | 105% | 92.3% | 96.5% | 93.6% | 100% | 106% | 106% | 98.2% | 96.4% | 101% | 94.8% | 101% | 102%
COc1cc(C[C@H]2C(=O)OC[C@@H]2Cc2ccc(OC)c(OC)c2)ccc1O [arctigenin] | 0 | 2.3 | 7.8 | 0 | 0.4 | > 10 µM | > 10 µM | 1.44 µM | > 10 µM | > 10 µM | 96% | 98.2% | 89.8% | 100% | 95% | 96.2% | 98.9% | 94.5% | 84.4% | 77.1% | 93.7% | 94.8% | 96.6% | 77.3% | 21% | 112% | 96.9% | 103% | 97.9% | 89.3% | 101% | 101% | 98.3% | 92% | 86%
CC[C@H](C)[C@H](N)C1=N[C@H](C(=O)N[C@@H](CC(C)C)C(=O)N[C@H](CCC(=O)O)C(=O)N[C@H](C(=O)N[C@H]2CCCCNC(=O)[C@H](CC(N)=O)NC(=O)[C@@H](CC(=O)O)NC(=O)[C@H](Cc3cnc[nH]3)NC(=O)[C@@H](Cc3ccccc3)NC(=O)[C@H]([C@@H](C)CC)NC(=O)[C@@H](CCCN)NC2=O)[C@@H](C)CC)CS1 [bacitracin] | 0 | 0 | 0 | 0 | 0 | > 10 µM | > 10 µM | > 10 µM | > 10 µM | > 10 µM | 102% | 96.2% | 103% | 114% | 110% | 104% | 104% | 90.4% | 106% | 119% | 100% | 99% | 99.4% | 103% | 104% | 103% | 96.4% | 97.7% | 99.5% | 97.8% | 95.8% | 96.3% | 98.9% | 98.9% | 102%
CC1(C)S[C@@H]2[C@H](NC(=O)Cc3ccccc3)C(=O)N2[C@H]1C(=O)O [benzylpenicillin] | 0 | 0 | 0 | 0 | 0 | > 10 µM | > 10 µM | > 10 µM | > 10 µM | > 10 µM | 99.5% | 97% | 99% | 98% | 107% | 80.1% | 101% | 97.6% | 95.3% | 106% | 95.9% | 94% | 116% | 99% | 98.2% | 88.5% | 104% | 98.8% | 93.4% | 94.2% | 96.6% | 101% | 101% | 104% | 104%
CCCCOC(=O)c1cc2c(cn1)[nH]c1ccccc12 [beta-CCB] | 0 | 0.1 | 0 | 0 | 0 | > 10 µM | > 10 µM | > 10 µM | > 10 µM | > 10 µM | 99.5% | 97.3% | 101% | 98.7% | 102% | 95.1% | 95.5% | 106% | 94.9% | 88.9% | 117% | 118% | 105% | 98.4% | 96% | 92.2% | 93% | 107% | 106% | 91.5% | 102% | 111% | 99.3% | 105% | 96%
CC(C)(C)[C@]1(O)CC2OC(=O)CC23C(=O)OC2OC(=O)[C@H](O)C231 (stereo not given in full) [bilobalide] | 0 | 0 | 0 | 0 | 0 | > 10 µM | > 10 µM | > 10 µM | > 10 µM | > 10 µM | 104% | 104% | 105% | 96.6% | 103% | 98% | 97.6% | 97.2% | 107% | 89.7% | 95.1% | 97.1% | 104% | 117% | 108% | 101% | 98.9% | 109% | 108% | 116% | 94.7% | 104% | 94% | 98.5% | 97.7%
CCN1CCN(c2cc(-c3ccc(F)cc3)c3c(n2)CCCCCC3)CC1 [blonanserin] | 0 | 0 | 0 | 0 | 0 | > 10 µM | > 10 µM | > 10 µM | > 10 µM | > 10 µM | 98.2% | 101% | 95% | 93.2% | 102% | 94% | 108% | 98.3% | 102% | 95.5% | 95.1% | 88% | 92.3% | 92.9% | 92.9% | 89.4% | 93.4% | 94.5% | 111% | 92.7% | 100% | 97.3% | 96.4% | 103% | 92.9%
O=C1C=Cc2cc(Br)ccc2C1=O [bonaphthone] | 0 | 0 | 0 | 0.8 | 0.1 | > 10 µM | > 10 µM | > 10 µM | > 10 µM | > 10 µM | 95.5% | 98.6% | 93.5% | 99.5% | 102% | 87.2% | 86.3% | 97.9% | 102% | 94.4% | 101% | 117% | 97.5% | 107% | 94.2% | 116% | 104% | 94.3% | 88% | 99.1% | 101% | 96.1% | 103% | 101% | 85.6%
